Measured values taken from a melting point compilation (Tetko et al.; mined from patent text by program, amines drawn as free bases though some values may be those of a salt).

Row | SMILES | melting point [°C]
1 | CCc1nc2c(N)nc3cc(OCCNC(C)=O)ccc3c2n1CC1CCOCC1 | 165 to 167
2 | CS(=O)(=O)c1ccc(C2=C(c3ccccc3)C(=O)N(c3ccc(F)cc3)C2=O)c(F)c1 | 198 to 200
3 | CC(=O)N(C)c1nc(-c2ccccc2)c(-c2ccc(=O)n(C(C)C)n2)s1 | 165 to 167
4 | Cc1cccc(C)c1N(C(C)CN1C(=O)c2ccccc2C1=O)S(C)(=O)=O (stereo not drawn) | 188 to 190
5 | O=C1Nc2cc(Cl)ccc2Oc2cscc21 | 263 to 265
6 | CN(C)C(=O)NC1CCC(=O)c2ccccc21 (stereo not drawn) | 157 to 162
7 | O=[N+]([O-])c1cccc(OCc2csc(-c3ccccc3)n2)c1 | 112 to 114
8 | COc1ccc(CC(=O)c2ccc(OC)c(OC)c2)cc1OC | 105 to 107
9 | O=c1c(CCCCCc2ccncc2)cc2cccnc2n1-c1cccc([N+](=O)[O-])c1 | 189 to 190
10 | O=C1c2ccccc2C(=O)N1CC(=O)N1c2ccccc2N(c2ccccc2)C(=O)C2CCCC21 (stereo not drawn) | 272 to 273
11 | COc1ccc(C(=O)Nc2ccccc2)cc1NS(=O)(=O)c1cccs1 | 180 to 183
12 | Cc1cccc2c1nc(COc1ccc(Cl)cc1)n2CCC(Cc1ccccc1)C(=O)O (stereo not drawn) | 190 to 192
13 | CCN(CC)CCNC(=O)c1cc(C#N)c(Cl)cc1OC | 104 to 105
14 | COc1cc(OCCCN2CCOCC2)c(C=CC(=O)c2ccc(C(N)=O)cc2)cc1-c1cccs1 | 81 to 83
15 | c1ccc(COC2CCN(Cc3cc4ccccc4[nH]3)CC2)cc1 | 103 to 105
16 | COc1ccc(CC2CCC3NCC(CO)CC3C2)cc1 (stereo not drawn) | 160 to 162
17 | CCOc1cc(C(CS(C)(=O)=O)N2Cc3cccc(NC(=O)C4CC4)c3C2=O)ccc1OC(F)F (stereo not drawn) | 115 to 117
18 | CN(C)CCC1=Cc2ccc(NC(=O)c3ccc(-c4ccccc4)cc3)cc2CC1 | 148 to 150
19 | CCOCc1nc2c(N)nc3cc(-c4cccnc4)ccc3c2n1CCN1CCNCC1 | 208 to 211
20 | CC1(C)OC(=O)Nc2ccc(-c3cccc(C#N)c3F)cc21 | 192 to 198
21 | CCOC(=O)c1ccc(C(=O)CBr)cc1 | 67 to 68.5
22 | CC(C)(C)CC(=O)NC(Cc1ccc(OCc2ccccc2)cc1)C(=O)Nc1c(F)cc(F)cc1F (stereo not drawn) | 150 to 157
23 | O=C(O)CCCSC(=S)NCCCc1ccc(Cl)cc1 | 98 to 100
24 | Cc1cc(Br)nc2c1OCC(=O)N2 | 174
25 | CC#CCOc1ccc(S(=O)C(C(=O)NO)C2CCCCC2)cc1 (stereo not drawn) | 188

Row | SMILES | melting point [°C]
26 | Cc1ccc2c(c1)C(=O)C(=O)N2CCN(C(C)C)C(C)C | 65 to 67
27 | O=C(O)C(=O)c1cnsc1 | 145 to 148
28 | CCC(OC)C(=O)Nc1ccc(C2=NNC(=O)CC2C)cc1 (stereo not drawn) | 151 to 152
29 | CN(C)C=NS(=O)(=O)c1c(C(F)(F)F)nc2ccc(Cl)nn12 | 204 to 205
30 | Cc1ccc(P(=O)(C(=O)c2c(C)cc(C)cc2C)C(=O)c2c(C)cc(C)cc2C)cc1 | 151 to 152
31 | CCOC(=O)c1c(O)c2cccnc2n(CCc2ccccc2)c1=O | 121 to 123
32 | CC(=O)Nc1cc(F)ccc1C | 127 to 128
33 | OCc1ccc(-c2ccccc2)cc1Cl | 69 to 70
34 | Cc1oc2c(C)c(C)c(OCc3ccccc3)c(C)c2c1CN1CCC[C@H]1CO | 98 to 100
35 | Cc1ccc([N+](=O)[O-])c(C=C2C(=O)NC(=O)N2C)c1C | 195 to 198
36 | COc1ncccc1-c1ccc(OC2SCC(O)C(O)C2O)cn1 (stereo not drawn) | 127
37 | CN1CCN(Cc2nnc3n2-c2ccc(Cl)cc2C(c2ccccc2)=NC3)CC1 | 203 to 206
38 | O=C(O)C1=CCCCC1C(=O)O (stereo not drawn) | 201 to 203
39 | COC(=O)C(Cc1ccccc1)Oc1ccc2cc(-c3cnc(-c4cn(C)c5ccccc45)o3)ccc2c1 (stereo not drawn) | 58 to 61
40 | COc1ccc(N=Nc2ccc(O)c(C(=O)Nc3ccc(OC)c(-c4n[nH]c5cc(C)nn45)c3)c2)cc1 | 295 to 296
41 | CCOC(=O)C(O)C1OC(n2cnc3c(N)ncnc32)C(O)C1O (stereo not drawn) | 265 to 268
42 | CCOC(=O)c1ccc(CN2CCN(C3=NC4(C=CC(=O)C=C4)C(c4ccccc4)=C3)CC2)cc1 | 199
43 | CC(C)(C)Cc1c(CC(C)(C)C(=O)O)n(Cc2ccc(Cl)cc2)c2ccc(OCc3ccc4occc4n3)cc12 | 172 to 173
44 | CCN(CCOc1ccc(Cl)c2[nH]cc(Cl)c12)c1ccsc1 | 123 to 125
45 | CCOC(=O)c1c(C)cc2c(c1C)c(=O)n(-c1ccccc1Cl)c(=O)n2C(=O)O | 182 to 183
46 | CNC(=O)[C@H](CO[Si](C)(C)C(C)(C)C)NC(=O)Nc1n[nH]c(=S)s1 | 213 to 214
47 | CC(=O)N1CCc2nc3cccc(N)c3c(C)c2CC1 | 150
48 | OCCCSCCSCCCO | 52
49 | O=C1CCC(c2ccc3[nH]c(-c4cccnc4)cc3c2)=NN1 | 298 to 300
50 | CC1=C(c2c[nH]c(-c3ccc(F)cc3)c2-c2ccncc2)CCN2CCC[C@@H]12 | 233 to 234

Row | SMILES | melting point [°C]
51 | Nc1cc(Oc2ccc3c(C(=O)Nc4cccc(C(F)(F)F)c4)nccc3c2)ncn1 | 197 to 200
52 | OC1(C(c2ccccc2F)n2cccc2)CCN(Cc2ccccc2)C1 (stereo not drawn) | 87 to 89
53 | Cc1cc(N)cc(C)c1Oc1ccc(O)c(C(C)C)c1 | 180 to 181
54 | CNc1nn(C(=O)NC(C)CCc2ccccc2Cl)c(=O)n1C (stereo not drawn) | 133 to 135
55 | CC(C)CCCC(C)C1CCC2C3CC=C4CC(NCCCNC(=O)CCCCCNc5ccc([N+](=O)[O-])cc5[N+](=O)[O-])CCC4(C)C3CCC12C (stereo not drawn) | 165 to 166
56 | N#CCOc1ccc(-c2ccccc2)cc1 | 81 to 83
57 | Cc1cc(-c2ccccc2O)n(-c2ccccc2)n1 | 211 to 214
58 | CSN=C1C(=O)N2C1SC(C)(C)C2C(=O)OCC(Cl)(Cl)Cl (stereo not drawn) | 129 to 130
59 | O=C1CCc2cc(Cl)c(S(=O)(=O)Cl)cc21 | 146 to 148
60 | COc1ccc(C2(C#N)CCC(=CC(=O)O)CC2)c2c1OCCO2 (stereo not drawn) | 203 to 204
61 | Nc1c(-c2ccccc2)oc2c(CO)cccc2c1=O | 192
62 | CC(C)(C)OC(=O)NO[C@H]1CC=C[C@H]1NC(=O)OCC(Cl)(Cl)Cl | 83 to 84
63 | O=C(O)c1nn(-c2ccccc2)c2c1CCc1cc(Cl)ccc1-2 | 282
64 | O=C(O)CCC(=NO)c1ccc(-c2ccccc2F)cc1 | 150 to 152
65 | O=C1C(=O)c2ccccc2C2=C1SCC1(CCCN(C(=O)c3cccc(Cl)c3)CC1)O2 (stereo not drawn) | 98 to 100
66 | COC(=O)N(C)CCc1ccc(N)c(CS(=O)(=O)c2ccccc2)c1 | 95 to 96
67 | CCCSc1nc(-c2ccc(C#N)cc2)cn1-c1ccc(C#N)cc1 | 117 to 122
68 | CCn1nc(C(C)C)c2c1C(=O)NCC(c1ccc(O)cc1)=N2 | 230
69 | COC(=O)CCCc1cc2nc(Cl)ccc2n1S(=O)(=O)c1cccc(N(C)C)c1 | 96 to 97
70 | COc1ccccc1N1CCN(CC(C(=O)NC(C)(C)C)c2ccccc2)CC1 (stereo not drawn) | 160 to 163
71 | O=C(NCC1(O)CCCCCC1)c1cc(-c2ccc(Cl)c(C(=O)O)n2)ccc1Cl | 146 to 149
72 | Cc1ccc(S(=O)O)cc1 | 55 to 57
73 | O=C1c2ccccc2C(=O)N1Cn1nnn(-c2ccccc2)c1=S | 130 to 134
74 | COc1cccc(Nc2cnc3c(NCc4ccccc4)nc(NCCO)nc3c2)c1 | 110 to 111
75 | O=C(O)CCCCCCCn1c(-c2ccc(O)cc2)nc(-c2ccccc2)c1-c1ccccc1 | 167

Row | SMILES | melting point [°C]
76 | Cc1nc(OC(C)C(=O)NC(C)(C#N)C(C)(C)C)c(Cl)c(C(F)(F)F)n1 (stereo not drawn) | 137 to 139
77 | Cc1nnc(-c2sc(N3CCN(Cc4ccc(C(F)(F)F)cc4)C3=O)nc2C)[nH]1 | 273 to 274
78 | CC(=O)NC[C@H]1CN(c2cc(F)c(N3CCSCC3)c(F)c2)C(=O)O1 | 187 to 188
79 | O=C(Nc1cccc2c1C(=O)c1c-2n[nH]c1-c1ccc(C(=O)N2CCC[C@@H]2CN2CCCC2)s1)NN1CCOCC1 | 166 to 167
80 | Cc1oc(-c2ccccc2)nc1COc1ccc(Cn2cc(C(=O)O)c(-c3ccccc3)n2)cc1 | 165 to 166
81 | Cc1ccc(S(=O)(=O)OCC2CCn3c(nc4ccccc43)S2)cc1 (stereo not drawn) | 145 to 147
82 | Nc1nc2c(ncn2Cc2cccnc2)c(=O)[nH]1 | > 300
83 | O=C(Cl)[C@H](Cc1ccccc1)NS(=O)(=O)c1ccc2ccccc2c1 | 141 to 143
84 | O=C(OCc1ccccc1)C1(Nc2ccccc2)CCN(CCc2ccccc2)CC1 | 76.7
85 | CCCCCCCNC(=O)N(C)c1cccc(-c2ccc(CCC(=O)O)cn2)c1 | 118
86 | COc1ccc(C(=O)c2cc(Br)ccc2N)cc1 | 120
87 | Nc1ccc(-c2ccc(N)cc2Br)c(Br)c1 | 151 to 153
88 | CCCC(Cl)C(=O)c1ccccc1 (stereo not drawn) | 71 to 72
89 | CCCCc1ncc(C=C2C(=O)Nc3ccccc32)n1Cc1ccc(C(=O)O)cc1 | 237 to 238
90 | CC1(C)CC(OC(=O)N=NC(=O)OC2CC(C)(C)N(OC3CCCCC3)C(C)(C)C2)CC(C)(C)N1OC1CCCCC1 | 189 to 191
91 | COc1ccc(C(OCC2OC(n3cnc4c(=O)[nH]c(NC(=O)Cc5ccc(Br)cc5)nc43)CC2O)(c2ccccc2)c2ccc(OC)cc2)cc1 (stereo not drawn) | 150 to 155
92 | C=CCN1CCCC1CNC(=O)c1cc(S(=O)(=O)CC)cc2c1OCCO2 (stereo not drawn) | 78 to 80
93 | CCCn1cc(Cc2ccc(C(=O)OC)cc2OC)c2cc(C=C(C)C(=O)O)ccc21 | 159 to 161
94 | C[N+]1([O-])CC(CO)(c2ccccn2)C(=O)c2ccccc21 (stereo not drawn) | 198 to 200
95 | Nc1c(F)c(N2CCC(=NO)C2)c(F)c2c1c(=O)c(C(=O)O)cn2C1CC1 | 273 to 276
96 | O=C(O)C(=O)c1ccc(OCOc2ccccc2)cc1 | 72 to 74
97 | CCCCCCCCCCCCCCCCCC(=O)Nc1cccc(N(CC(=O)O)CC(=O)O)c1 | 135 to 140
98 | CC(=O)OCC1OC(n2c(Cl)nc3cc(Cl)c(Cl)cc32)C(OC(C)=O)C1OC(C)=O (stereo not drawn) | 145 to 146
